Measured values: PubChem BioAssay (NCI)
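Where inhibition never reached the appropriate level, the endpoint shown equals the highest concentration tested. Otherwise, values were interpolated linearly from a five-concentration, 48-hour dose response in 96-well plates. At the TGI there is no net growth.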

Legend:
Assay in all cases: NCI-60 cell line screen, 48 h
IGROV1 ovarian = test system: IGROV1 ovarian
LXFL 529 NSCLC = test system: LXFL 529 NSCLC
COLO 205 colon = test system: COLO 205 colon
NCI-H460 lung = test system: NCI-H460 lung
TK-10 renal = test system: TK-10 renal
KM12 colon = test system: KM12 colon
NCI-H522 lung = test system: NCI-H522 lung
M19-MEL melanoma = test system: M19-MEL melanoma
UACC-257 melanoma = test system: UACC-257 melanoma
A498 renal = test system: A498 renal
HL-60(TB) leukemia = test system: HL-60(TB) leukemia
CCRF-CEM leukemia = test system: CCRF-CEM leukemia
CAKI-1 renal = test system: CAKI-1 renal
M14 melanoma = test system: M14 melanoma
786-0 renal = test system: 786-0 renal
HOP-92 NSCLC = test system: HOP-92 NSCLC
OVCAR-5 ovarian = test system: OVCAR-5 ovarian
SK-OV-3 ovarian = test system: SK-OV-3 ovarian
DMS 273 small cell lung = test system: DMS 273 small cell lung
OVCAR-8 ovarian = test system: OVCAR-8 ovarian
SK-MEL-2 melanoma = test system: SK-MEL-2 melanoma
MOLT-4 leukemia = test system: MOLT-4 leukemia
A549 NSCLC = test system: A549 NSCLC
LOX IMVI melanoma = test system: LOX IMVI melanoma
U251 CNS = test system: U251 CNS
SW-620 colon = test system: SW-620 colon
K-562 leukemia = test system: K-562 leukemia
HCT-116 colon = test system: HCT-116 colon
HT29 colon = test system: HT29 colon
SNB-78 CNS = test system: SNB-78 CNS
RPMI-8226 leukemia = test system: RPMI-8226 leukemia
SNB-75 CNS = test system: SNB-75 CNS
SK-MEL-5 melanoma = test system: SK-MEL-5 melanoma
NCI-H23 lung = test system: NCI-H23 lung
EKVX NSCLC = test system: EKVX NSCLC
HOP-62 NSCLC = test system: HOP-62 NSCLC
SK-MEL-28 melanoma = test system: SK-MEL-28 melanoma
SF-539 CNS = test system: SF-539 CNS
OVCAR-3 ovarian = test system: OVCAR-3 ovarian
ACHN renal = test system: ACHN renal
SF-268 CNS = test system: SF-268 CNS
SF-295 CNS = test system: SF-295 CNS
NCI-H226 lung = test system: NCI-H226 lung
DMS 114 small cell lung = test system: DMS 114 small cell lung
UACC-62 melanoma = test system: UACC-62 melanoma
DLD-1 colon = test system: DLD-1 colon
UO-31 renal = test system: UO-31 renal
OVCAR-4 ovarian = test system: OVCAR-4 ovarian
HCT-15 colon = test system: HCT-15 colon
SN12C renal = test system: SN12C renal
SR leukemia = test system: SR leukemia
SNB-19 CNS = test system: SNB-19 CNS
HCC-2998 colon = test system: HCC-2998 colon
KM20L2 colon = test system: KM20L2 colon
MALME-3M melanoma = test system: MALME-3M melanoma

## COc1c(Br)cc(Br)c(OC)c1-c1ccc[nH]1
IGROV1 ovarian
  TGI: > 100 µM
LXFL 529 NSCLC
  TGI: > 100 µM
COLO 205 colon
  TGI: > 100 µM
NCI-H460 lung
  TGI: > 100 µM
TK-10 renal
  TGI: > 100 µM
KM12 colon
  TGI: > 100 µM
NCI-H522 lung
  TGI: > 100 µM
M19-MEL melanoma
  TGI: > 100 µM
UACC-257 melanoma
  TGI: > 100 µM
A498 renal
  TGI: > 100 µM
HL-60(TB) leukemia
  TGI: > 100 µM
CCRF-CEM leukemia
  TGI: > 100 µM
CAKI-1 renal
  TGI: > 100 µM
M14 melanoma
  TGI: > 100 µM
786-0 renal
  TGI: > 100 µM
HOP-92 NSCLC
  TGI: > 100 µM
OVCAR-5 ovarian
  TGI: > 100 µM
SK-OV-3 ovarian
  TGI: > 100 µM
DMS 273 small cell lung
  TGI: > 100 µM
OVCAR-8 ovarian
  TGI: > 100 µM
SK-MEL-2 melanoma
  TGI: > 100 µM
MOLT-4 leukemia
  TGI: > 100 µM
A549 NSCLC
  TGI: > 100 µM
LOX IMVI melanoma
  TGI: > 100 µM
U251 CNS
  TGI: > 100 µM
SW-620 colon
  TGI: > 100 µM
K-562 leukemia
  TGI: > 100 µM
HCT-116 colon
  TGI: > 100 µM
HT29 colon
  TGI: > 100 µM
SNB-78 CNS
  TGI: > 100 µM
RPMI-8226 leukemia
  TGI: > 100 µM
SNB-75 CNS
  TGI: > 100 µM
SK-MEL-5 melanoma
  TGI: > 100 µM
NCI-H23 lung
  TGI: > 100 µM
EKVX NSCLC
  TGI: > 100 µM
HOP-62 NSCLC
  TGI: > 100 µM
SK-MEL-28 melanoma
  TGI: > 100 µM
SF-539 CNS
  TGI: > 100 µM
OVCAR-3 ovarian
  TGI: > 100 µM
ACHN renal
  TGI: > 100 µM
SF-268 CNS
  TGI: > 100 µM
SF-295 CNS
  TGI: > 100 µM
NCI-H226 lung
  TGI: > 100 µM
DMS 114 small cell lung
  TGI: > 100 µM
UACC-62 melanoma
  TGI: > 100 µM
DLD-1 colon
  TGI: > 100 µM
UO-31 renal
  TGI: > 100 µM
OVCAR-4 ovarian
  TGI: > 100 µM
HCT-15 colon
  TGI: > 100 µM

## CCOC1=CP(=O)(OCC)CC(C)=C1Cl (configuration not stated)
SN12C renal
  TGI: > 100 µM
IGROV1 ovarian
  TGI: > 100 µM
LXFL 529 NSCLC
  TGI: > 100 µM
COLO 205 colon
  TGI: 25.2 µM
NCI-H460 lung
  TGI: > 100 µM
TK-10 renal
  TGI: > 100 µM
KM12 colon
  TGI: > 100 µM
NCI-H522 lung
  TGI: > 100 µM
M19-MEL melanoma
  TGI: > 100 µM
UACC-257 melanoma
  TGI: > 100 µM
A498 renal
  TGI: > 100 µM
HL-60(TB) leukemia
  TGI: > 100 µM
SR leukemia
  TGI: > 100 µM
CCRF-CEM leukemia
  TGI: > 100 µM
CAKI-1 renal
  TGI: > 100 µM
M14 melanoma
  TGI: > 100 µM
786-0 renal
  TGI: > 100 µM
HOP-92 NSCLC
  TGI: > 100 µM
OVCAR-5 ovarian
  TGI: > 100 µM
SK-OV-3 ovarian
  TGI: > 100 µM
SNB-19 CNS
  TGI: > 100 µM
DMS 273 small cell lung
  TGI: 75.2 µM
OVCAR-8 ovarian
  TGI: > 100 µM
SK-MEL-2 melanoma
  TGI: > 100 µM
MOLT-4 leukemia
  TGI: > 100 µM
A549 NSCLC
  TGI: > 100 µM
LOX IMVI melanoma
  TGI: > 100 µM
U251 CNS
  TGI: > 100 µM
SW-620 colon
  TGI: > 100 µM
K-562 leukemia
  TGI: > 100 µM
HCT-116 colon
  TGI: > 100 µM
HT29 colon
  TGI: > 100 µM
SNB-78 CNS
  TGI: > 100 µM
RPMI-8226 leukemia
  TGI: > 100 µM
SNB-75 CNS
  TGI: > 100 µM
SK-MEL-5 melanoma
  TGI: > 100 µM
HCC-2998 colon
  TGI: > 100 µM
NCI-H23 lung
  TGI: > 100 µM
EKVX NSCLC
  TGI: > 100 µM
HOP-62 NSCLC
  TGI: > 100 µM
SK-MEL-28 melanoma
  TGI: > 100 µM
SF-539 CNS
  TGI: > 100 µM
OVCAR-3 ovarian
  TGI: > 100 µM
KM20L2 colon
  TGI: > 100 µM
ACHN renal
  TGI: > 100 µM
SF-268 CNS
  TGI: > 100 µM
SF-295 CNS
  TGI: > 100 µM
NCI-H226 lung
  TGI: > 100 µM
MALME-3M melanoma
  TGI: > 100 µM
DMS 114 small cell lung
  TGI: > 100 µM
UACC-62 melanoma
  TGI: > 100 µM
DLD-1 colon
  TGI: > 100 µM
UO-31 renal
  TGI: > 100 µM
